From patent publication US9181214B2 (RHIZEN PHARMACEUTICALS SA, priority 2011, dated 2015)

How the values were obtained:
human GPR119 = molecular target: T1, human GPR119 (Homo sapiens, UniProt Q8TDV5); assay: In vitro cyclic AMP assay (Cisbio HTRF) in HEK293 cells transfected with human GPR119; type: cell-based; conditions: cAMP; for activation at 10 µM: 1 h, % Induction @ 10 μM
T1 construct: expressed in transfected cells; host or cells: HEK293 (transient transfection, Lipofectamine 2000)
T1 sequence (Q8TDV5 1-335): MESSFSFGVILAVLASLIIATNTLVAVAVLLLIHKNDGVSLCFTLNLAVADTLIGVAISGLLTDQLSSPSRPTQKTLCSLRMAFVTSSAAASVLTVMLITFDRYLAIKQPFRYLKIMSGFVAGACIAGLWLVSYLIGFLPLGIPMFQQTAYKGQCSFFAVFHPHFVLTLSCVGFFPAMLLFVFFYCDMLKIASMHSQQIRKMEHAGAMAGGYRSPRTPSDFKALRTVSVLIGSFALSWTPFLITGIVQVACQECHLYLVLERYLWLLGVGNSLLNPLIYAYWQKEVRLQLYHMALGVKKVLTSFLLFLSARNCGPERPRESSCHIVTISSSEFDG
Method: A. In Vitro Cyclic AMP Assay:
cAMP measurements were done using a Cisbio dynamic 2 HTRF kit (Cisbio, Bedford, Mass.) according to the manufacturer's protocol. Briefly, HEK293 cells (0.2×10^6/well) were plated in a 24 well plate and incubated overnight at 37° C. Cells were transfected with either empty vector DNA or human GPR119 expression plasmid DNA using Lipofectamine 2000 (Invitrogen). After 24 h, transfected cells were harvested, counted and plated at 1000 cells/5 ul in a black 384 welled small volume plate. Cells were treated with desired concentrations of compounds and incubated for 60 min at room temperature. Lysis buffer containing cAMP-d2 and cryptate conjugate were added and incubated for 1 h. HRTF ratio was measured on a microplate reader (BMG Labtech., Germany) at an excitation wavelength of 337 nm and emission wavelengths of 665 and 620 nm with an integration time of 400 μsec. Data were analyzed using Graphpad Prism (Graphpad software; San Diego Calif.) for EC50 determination.
The results are as given in Table I as % Induction@ 10 μM, Table II as % Induction@ 10 μM and EC 50 in nM

C57Bl/6J mice = assay: Oral glucose tolerance test (OGTT) in C57Bl/6J mice; type: in vivo; conditions: single oral dose 1 h before 2.0 g/kg oral glucose, sitagliptin 10 mg/kg, vs vehicle
Method: FIG. 1 is a graph of blood glucose over time in C57BI/6J mice according to the oral glucose tolerance test (Biological Assay Procedure E) before and after oral administration of vehicle (control), compound A (Example 64@ 30 mg/kg), or sitagliptin (10 mg/kg @ 10 mg/kg).
FIG. 2 is a graph of blood glucose over time in C57BI/6J mice according to the oral glucose tolerance test (Biological Assay Procedure E) before and after oral administration of vehicle (control), compound […] (Example 42 @ 10 mg/kg), or sitagliptin (10 mg/kg @ 10 mg/kg).
E: Oral Glucose Tolerance Test (OGTT) in C57Bl/6J Mice:
After the quarantine period, 6 hr fasted animals were randomized and divided into various groups depending on their blood glucose levels. Test compounds or standard drug (sitagliptin) was prepared as a suspension in a vehicle consisting of 0.5% methylcellulose and Tween 80 as a suspending agent. The standard drug, Compound A (example-64), Compound B (example-42) or vehicle were administered by oral gavage in a volume of 10 mL/kg. 1 h after the test compounds, standard drug and vehicle administration, blood was sampled from the tail vein of mice at time 0 min (baseline) and at 30, 60, 90 and 120 min after an oral glucose load of 2.0 g/kg of body weight. Food, but not water, was withheld from the cages during the course of experiment. The area under curve (AUC) of experimental animals was compared with that of vehicle-treated control group. The results are shown in FIGS. 1 and 2 and are discussed below.

Row | SMILES | activation at 10 µM (human GPR119; Table I) [%] | melting point [°C] | other results
1 | CC(C)OC(=O)N1CCC(c2nc3ccc(-c4ccc(C(F)F)cc4)cc3o2)CC1 [EXAMPLE-33, Isopropyl 4-{6-[4-(difluoromethyl)phenyl]benzo[d]oxazol-2-yl}piperidine-1-carboxylate] | 10.6 | 149 to 153 | 
2 | CS(=O)(=O)N1CCC(c2nc3cc(-c4ccc(-n5cnnn5)cc4F)ccc3o2)CC1 [EXAMPLE-35, 5-[2-fluoro-4-(1H-tetrazol-1-yl)phenyl]-2-[1-(methylsulfonyl)piperidin-4-yl]benzo[d]oxazole] | 0.28 | 209 to 212 | 
3 | CC(C)CC(=O)N1CCC(c2nc3cc(-c4ccc(C(N)=O)c(F)c4)ccc3o2)CC1 [EXAMPLE-39, 2-Fluoro-4-{2-[1-(3-methylbutanoyl)piperidin-4-yl]benzo[d]oxazol-5-yl}benzamide] | 27.5 | 186 to 190 | 
4 | CC(C)CC(=O)N1CCC(c2nc3cc(-c4ccc(-n5cnnn5)cc4F)ccc3o2)CC1 [EXAMPLE-40, 1-{4-[5-(2-fluoro-4-(1H-tetrazol-1-yl)phenyl]benzo[d]oxazol-2-yl]piperidin-1-yl}-3-methylbutan-1-one] | 21.9 | 168 to 172 | 
5 | COCCN1CCC(c2nc3cc(-c4ccc(-n5cnnn5)cc4F)ccc3o2)CC1 [EXAMPLE-41, 5-[2-fluoro-4-(1H-tetrazol-1-yl)phenyl]-2-[1-(2-methoxyethyl)piperidin-4-yl]benzo[d]oxazole] |  | 148 to 152 | 
6 | CC(C)C(=O)N1CCC(c2nc3cc(-c4ccc(C(N)=O)c(F)c4)ccc3o2)CC1 [EXAMPLE-43, 2-Fluoro-4-[2-(1-isobutyrylpiperidin-4-yl)benzo[d]oxazol-5-yl]benzamide] | 48.8 | 193 to 196 | 
7 | NC(=O)c1ccc(-c2ccc3oc(C4CCN(c5ncc(F)cn5)CC4)nc3c2)cc1F [EXAMPLE-51, 2-Fluoro-4-{2-[1-(5-fluoropyrimidin-2-yl)piperidin-4-yl]benzo[d]oxazol-5-yl}benzamide] | 38.7 | 226 to 229 | 
8 | CS(=O)(=O)c1ccc(-c2nc3cc(C4=CCN(S(=O)(=O)CCCO)CC4)ccc3o2)c(F)c1 [EXAMPLE-79, 3-{4-[2-(2-fluoro-4-(methylsulfonyl)phenyl)benzo[d]oxazol-5-yl]-5,6-dihydropyridin-1(2H)-ylsulfonyl}propan-1-ol] |  |  | activation at 10 µM (human GPR119; Table II): 46.2%
9 | CS(=O)(=O)c1ccc(-c2nc3cc(C4CCN(S(=O)(=O)CCCO)CC4)ccc3o2)c(F)c1 [EXAMPLE-80, 3-{4-[2-(2-fluoro-4-(methylsulfonyl)phenyl)benzo[d]oxazol-5-yl]piperidin-1-ylsulfonyl}propan-1-ol] |  |  | activation at 10 µM (human GPR119; Table II): 26.4%
10 | CS(=O)(=O)c1ccc(-c2nc3cc(C4CCN(c5ncc(F)cn5)CC4)ccc3o2)c(F)c1 [EXAMPLE-81] |  | 220 to 222 | activation at 10 µM (human GPR119; Table II): 43%
11 | CC(C)c1noc(C2CCN(c3ccc4oc(-c5ccc(S(C)(=O)=O)cc5F)nc4c3)CC2)n1 [EXAMPLE-83, 2-[2-fluoro-4-(methylsulfonyl)phenyl]-5-[4-(3-isopropyl-1,2,4-oxadiazol-5-yl)piperidin-1-yl]benzo[d]oxazole] |  |  | activation at 10 µM (human GPR119; Table II): 57.6%
12 | CC(C)(C)OC(=O)N1CCC(c2ccc3nc(-c4ccc(C(F)(F)F)cc4)oc3c2)CC1 [EXAMPLE-84, Tert-butyl 4-{2-[4-(trifluoromethyl)phenyl]benzo[d]oxazol-6-yl}piperidine-1-carboxylate] |  | 174 to 179 | activation at 10 µM (human GPR119; Table II): 13.2%
13 | CC(C)(C)OC(=O)N1CCC(c2cnc3oc(-c4ccc(C(F)(F)F)cc4)nc3c2)CC1 [EXAMPLE-87, Tert-butyl 4-{2-[4-(trifluoromethyl)phenyl]oxazolo[5,4-b]pyridin-6-yl}piperidine-1-carboxylate] |  |  | activation at 10 µM (human GPR119; Table II): 47.3%
14 | N[C@@H](CC(=O)N1CCn2c(nnc2C(F)(F)F)C1)Cc1cc(F)c(F)cc1F [Sitagliptin, sitagliptin, reference compound] |  |  | lowered AUCglucose (C57Bl/6J mice; FIG. 1 study, Compound A 30 mg/kg): 59%; lowered AUCglucose (C57Bl/6J mice; FIG. 2 study, Compound B 10 mg/kg): 50%

Second part, led by results:

Row | activation at 10 µM (human GPR119; Table I) [%] | melting point [°C] | SMILES | other results
15 |  | 239 to 242 | CC(C)OC(=O)N1CCC(c2nc3cc(-c4ccc(C(=O)O)cn4)ccc3o2)CC1 [EXAMPLE-34, 6-{2-[1-(isopropoxycarbonyl)piperidin-4-yl]benzo[d]oxazol-5-yl}nicotinic acid] | 
16 | 4.83 | 227 to 230 | CC(C)OC(=O)N1CCC(c2nc3cc(-c4ccc(C(N)=O)cn4)ccc3o2)CC1 [EXAMPLE-36, Isopropyl 4-[5-(5-carbamoylpyridin-2-yl)benzo[d]oxazol-2-yl]piperidine-1-carboxylate] | 
17 | 6.56 | 194 to 197 | CC(C)OC(=O)N1CCC(c2nc3cc(-c4ccc(C(N)=O)cc4F)ccc3o2)CC1 [EXAMPLE-37, Isopropyl 4-[5-(4-carbamoyl-2-fluorophenyl)benzo[d]oxazol-2-yl]piperidine-1-carboxylate] | 
18 | 16.6 | 178 to 182 | CC(C)OC(=O)N1CCC(c2nc3cc(-c4ccc(C(N)=O)cc4Cl)ccc3o2)CC1 [EXAMPLE-38, Isopropyl 4-[5-(4-carbamoyl-2-chlorophenyl)benzo[d]oxazol-2-yl]piperidine-1-carboxylate] | 
19 | 64.8 | 178 to 181 | CC(C)OC(=O)N1CCC(c2nc3ccc(-c4ccc(C(N)=O)c(F)c4)cc3o2)CC1 [EXAMPLE-44, Isopropyl 4-[6-(4-carbamoyl-3-fluorophenyl)benzo[d]oxazol-2-yl]piperidine-1-carboxylate] | EC50 (human GPR119; Table I, Emax varies between 65 to 80%): 25 to 50 nM
20 | 56.4 | 145 to 147 | CC(C)OC(=O)N1CCC(c2nc3cc(-c4ccc(C(=O)NCCO)c(F)c4)ccc3o2)CC1 [EXAMPLE-45, Isopropyl 4-{5-[3-fluoro-4-(2-hydroxyethylcarbamoyl)phenyl]benzo[d]oxazol-2-yl}piperidine-1-carboxylate] | 
21 | 53 | 147 to 150 | CC(C)NC(=O)c1ccc(-c2ccc3oc(C4CCN(C(=O)OC(C)C)CC4)nc3c2)cc1F [EXAMPLE-46, Isopropyl 4-{5-[3-fluoro-4-(isopropylcarbamoyl)phenyl]benzo[d]oxazol-2-yl}piperidine-1-carboxylate] | 
22 | 33.1 | 179 to 181 | CNS(=O)(=O)c1ccc(-c2ccc3oc(C4CCN(C(=O)OC(C)C)CC4)nc3c2)cc1 [EXAMPLE-47, Isopropyl 4-{5-[4-(N-methylsulfamoyl)phenyl]benzo[d]oxazol-2-yl}piperidine-1-carboxylate] | 
23 | 26.7 | 158 to 161 | CNC(=O)c1ccc(-c2ccc3oc(C4CCN(C(=O)OC(C)C)CC4)nc3c2)cn1 [EXAMPLE-48, Isopropyl 4-{5-[6-(methylcarbamoyl)pyridin-3-yl]benzo[d]oxazol-2-yl}piperidine-1-carboxylate] | 
24 | 32.9 | 151 to 154 | CNC(=O)c1ccc(-c2ccc3oc(C4CCN(C(=O)OC(C)C)CC4)nc3c2)cc1C [EXAMPLE-49, Isopropyl 4-{5-[3-methyl-4-(methylcarbamoyl)phenyl]benzo[d]oxazol-2-yl}piperidine-1-carboxylate] | 
25 | 38.7 | 162 to 165 | CC(C)OC(=O)N1CCC(c2nc3cc(-c4ccc(C(=O)NC5CC5)c(F)c4)ccc3o2)CC1 [EXAMPLE-50, Isopropyl 4-{5-[4-(cyclopropylcarbamoyl)-3-fluorophenyl]benzo[d]oxazol-2-yl}piperidine-1-carboxylate] | 
